Assay results: patent publication US20230346831A1, “METHODS FOR TREATING […] USING LOW DOSE CARBON MONOXIDE” (priority 2020, published 2023)
Where “and” joins values, the source holds several entries; their conditions need not be identical. Equal values may be shown once.

Tested on: MCF7/TGL cells
Test: metabolomic assay (polar metabolite profiling, mass spectrometry)
Format: cell-based, human
Protocol: Extraction and analysis were performed with the same parameters as the method disclosed in FIG. 7.
7 × 10^6 cells were seeded in 10-cm cell culture plates with DMEM containing 10% FBS, 0.2 mM L-glutamine and 1% penicillin/streptomycin. Additionally, MCF7/TGL/pQ was cultured in media containing 0.5 µgml^-1 puromycin and 25 mM HEPES. After 16 hours of incubation, metabolites were extracted from the cells using 80% methanol. The remaining steps were carried out by Weill Cornell Medicine Proteomics and Metabolomics Core Facility according to M. D. Goncalves et al., Proc Natl Acad Sci USA 115, E743-E752 (2018). All data analyses were done using MetaboAnalyst 4.0 (www.metaboanalyst.ca/).
To investigate whether 250 ppm CO mimics hypoxia, the HiF1α protein levels were examined in CO treated MCF7/TGL and MDA-MB-231/TGL cells. […] To determine whether 250 ppm CO affects metabolism, polar metabolites were profiled using two breast cancer cell lines, MCF7/TGL and MDA-MB-231/TGL (FIGS. 7-9).

[1] = MCF7/TGL cells, 250 ppm CO, 16 hours

## [C-]#[O+] [CO, Carbon monoxide]
HMDB00630, MCF7/TGL cells treated with CO, replicates CO 1-3
  Peak Height Cytosine: 153,235 and 158,066 and 214,404
HMDB00641, MCF7/TGL cells treated with CO, replicates CO 1-3
  Peak Height L-Glutamine: 2,010,884,000 and 2,067,120,000 and 2,186,859,000
HMDB00660, MCF7/TGL cells treated with CO, replicates CO 1-3
  Peak Height D-Fructose: 2,161,466 and 2,426,370 and 4,390,968
HMDB00671, MCF7/TGL cells treated with CO, replicates CO 1-3
  Peak Height Indolelactic acid: 168,415 and 166,030 and 323,966
HMDB00682, MCF7/TGL cells treated with CO, replicates CO 1-3
  Peak Height Indoxyl sulfate: 31,554 and 19,025 and 38,019
HMDB00684, MCF7/TGL cells treated with CO, replicates CO 1-3
  Peak Height L-Kynurenine: 186,534 and 218,684 and 386,445
HMDB00687, MCF7/TGL cells treated with CO, replicates CO 1-3
  Peak Height L-Leucine: 319,755,000 and 339,183,100 and 446,258,700
HMDB00696, MCF7/TGL cells treated with CO, replicates CO 1-3
  Peak Height L-Methionine: 110,122,300 and 114,069,500 and 202,567,100
HMDB00705, MCF7/TGL cells treated with CO, replicates CO 1-3
  Peak Height Hexanoylcarnirine: 309,788 and 384,626 and 554,943
HMDB00714, MCF7/TGL cells treated with CO, replicates CO 1-3
  Peak Height Hippuric acid: 41,839 and 33,037 and 50,895
HMDB00715, MCF7/TGL cells treated with CO, replicates CO 1-3
  Peak Height Kynurenic acid: 57,830 and 46,636 and 67,981
HMDB00744, MCF7/TGL cells treated with CO, replicates CO 1-3
  Peak Height Malic acid: 118,667,000 and 141,604,200 and 190,900,500
HMDB00766, MCF7/TGL cells treated with CO, replicates CO 1-3
  Peak Height N-Acetyl-L-alanine: 3,050,982 and 3,282,590 and 5,343,814
HMDB00779, MCF7/TGL cells treated with CO, replicates CO 1-3
  Peak Height Phenyllactic acid: 375,745 and 377,557 and 505,569
HMDB00807, MCF7/TGL cells treated with CO, replicates CO 1-3
  Peak Height 3-Phosphoglyceric acid: 830,372 and 1,313,918 and 2,225,910
HMDB00812, MCF7/TGL cells treated with CO, replicates CO 1-3
  Peak Height N-Acetyl-L-aspartic acid: 107,096,600 and 121,628,700 and 146,462,300
HMDB00821, MCF7/TGL cells treated with CO, replicates CO 1-3
  Peak Height Phenylacetylglycine: 1,455,001 and 1,300,695 and 2,222,377
HMDB00824, MCF7/TGL cells treated with CO, replicates CO 1-3
  Peak Height Propionylcarnitine: 88,247,270 and 88,089,220 and 114,107,300
HMDB00828, MCF7/TGL cells treated with CO, replicates CO 1-3
  Peak Height Ureidosuccinic acid: 967,259 and 2,115,336 and 2,977,458
HMDB00883, MCF7/TGL cells treated with CO, replicates CO 1-3
  Peak Height L-Valine: 166,887,800 and 164,029,200 and 219,042,800
HMDB00895, MCF7/TGL cells treated with CO, replicates CO 1-3
  Peak Height Acetylcholine: 79,843,420 and 75,982,720 and 87,382,500
HMDB00902, MCF7/TGL cells treated with CO, replicates CO 1-3
  Peak Height NAD: 6,156,942 and 7,187,370 and 12,756,100
HMDB00904, MCF7/TGL cells treated with CO, replicates CO 1-3
  Peak Height Citrulline: 9,044,262 and 10,234,370 and 14,264,050
HMDB00929, MCF7/TGL cells treated with CO, replicates CO 1-3
  Peak Height L-Tryptophan: 30,996,070 and 34,786,840 and 68,643,900
HMDB00935, MCF7/TGL cells treated with CO, replicates CO 1-3
  Peak Height Uridine diphosphate glucuronic acid: 726,138 and 548,546 and 770,082
HMDB00939, MCF7/TGL cells treated with CO, replicates CO 1-3
  Peak Height S-Adenosylhomocysteine: 56,652 and 145,088 and 413,677
HMDB00943, MCF7/TGL cells treated with CO, replicates CO 1-3
  Peak Height Threonic acid: 76,882,710 and 94,196,330 and 129,619,900
HMDB00960, MCF7/TGL cells treated with CO, replicates CO 1-3
  Peak Height dGDP: 686,954 and 539,654 and 784,042
HMDB00965, MCF7/TGL cells treated with CO, replicates CO 1-3
  Peak Height Hypotaurine: 4,796,295 and 5,519,371 and 5,943,089
HMDB01003, MCF7/TGL cells treated with CO, replicates CO 1-3
  Peak Height Adenosine phosphosulfate: 14,981 and 16,338
HMDB01031, MCF7/TGL cells treated with CO, replicates CO 1-3
  Peak Height Deoxyribose 5-phosphate: 19,019 and 34,976 and 30,540
HMDB01066, MCF7/TGL cells treated with CO, replicates CO 1-3
  Peak Height S-Lactoylglutathione: 397,298 and 293,636 and 484,692
HMDB01068, MCF7/TGL cells treated with CO, replicates CO 1-3
  Peak Height D-Sedoheptulose 7-phosphate: 151,546 and 165,071 and 234,010
HMDB01112, MCF7/TGL cells treated with CO, replicates CO 1-3
  Peak Height D-Glyceraldehyde 3-phosphate: 1,475,183 and 1,160,887 and 1,058,732
HMDB01138, MCF7/TGL cells treated with CO, replicates CO 1-3
  Peak Height N-Acetylglutamic acid: 567,078 and 897,146 and 1,371,040
HMDB01173, MCF7/TGL cells treated with CO, replicates CO 1-3
  Peak Height 5′-Methylthioadenosine: 269,714 and 419,042 and 1,274,477
HMDB01185, MCF7/TGL cells treated with CO, replicates CO 1-3
  Peak Height S-Adenosylmethionine: 9,310,209 and 12,590,700 and 17,427,170
HMDB01201, MCF7/TGL cells treated with CO, replicates CO 1-3
  Peak Height Guanosine diphosphate: 35,607 and 34,452 and 43,718
HMDB01209, MCF7/TGL cells treated with CO, replicates CO 1-3
  Peak Height Allantoic acid: 44,843 and 53,026 and 96,308
HMDB01227, MCF7/TGL cells treated with CO, replicates CO 1-3
  Peak Height 5-Thymidylic acid: 266,456 and 133,281 and 141,715
HMDB01254, MCF7/TGL cells treated with CO, replicates CO 1-3
  Peak Height Glucosamine 6-phosphate: 44,392 and 62,516 and 90,486
HMDB01273, MCF7/TGL cells treated with CO, replicates CO 1-3
  Peak Height Guanosine triphosphate: 84,003 and 60,453 and 112,154
HMDB01325, MCF7/TGL cells treated with CO, replicates CO 1-3
  Peak Height N6,N6,N6-Trimethyl-L-lysine: 4,594,085 and 5,317,512 and 7,697,279
HMDB01341, MCF7/TGL cells treated with CO, replicates CO 1-3
  Peak Height ADP: 902,793 and 705,422 and 1,082,377
HMDB01342, MCF7/TGL cells treated with CO, replicates CO 1-3
  Peak Height Thymidine 5′-triphosphate: 54,889 and 34,363 and 35,046
HMDB01367, MCF7/TGL cells treated with CO, replicates CO 1-3
  Peak Height N-Acetyl-glucosamine 1-phosphate: 464,872 and 467,412 and 595,300
HMDB01397, MCF7/TGL cells treated with CO, replicates CO 1-3
  Peak Height Guanosine monophosphate: 73,405 and 58,750 and 80,249
HMDB01401, MCF7/TGL cells treated with CO, replicates CO 1-3
  Peak Height Glucose 6-phosphate: 1,799,795 and 2,339,699 and 3,140,759
HMDB01406, MCF7/TGL cells treated with CO, replicates CO 1-3
  Peak Height Niacinamide: 1,738,434 and 1,604,153 and 3,615,850
HMDB01413, MCF7/TGL cells treated with CO, replicates CO 1-3
  Peak Height Citicoline: 1,054,917 and 1,269,775 and 2,126,892
HMDB01487, MCF7/TGL cells treated with CO, replicates CO 1-3
  Peak Height NADH: 81,979 and 73,214 and 61,204
HMDB01539, MCF7/TGL cells treated with CO, replicates CO 1-3
  Peak Height Asymmetric dimethylarginine: 2,485,123 and 2,893,325 and 4,095,202
HMDB01546, MCF7/TGL cells treated with CO, replicates CO 1-3
  Peak Height CDP: 49,666 and 36,830 and 44,004
HMDB01548, MCF7/TGL cells treated with CO, replicates CO 1-3
  Peak Height D-Ribose 5-phosphate: 523,976 and 578,358 and 695,562
HMDB01564, MCF7/TGL cells treated with CO, replicates CO 1-3
  Peak Height CDP-Ethanolamine: 229,328 and 262,826 and 313,255
HMDB01565, MCF7/TGL cells treated with CO, replicates CO 1-3
  Peak Height Phosphorylcholine: 826,434,500 and 950,902,100 and 1,062,045,000
HMDB01586, MCF7/TGL cells treated with CO, replicates CO 1-3
  Peak Height Glucose 1-phosphate: 194,892 and 220,042 and 348,617
HMDB01624, MCF7/TGL cells treated with CO, replicates CO 1-3
  Peak Height 2-Hydroxycaproic acid: 663,141 and 926,482 and 905,559
HMDB01721, MCF7/TGL cells treated with CO, replicates CO 1-3
  Peak Height DL-O-Phosphoserine: 256,439 and 305,155 and 440,561
HMDB01864, MCF7/TGL cells treated with CO, replicates CO 1-3
  Peak Height 2-Ketohexanoic acid: 10,109,740 and 13,290,500 and 25,544,760
HMDB01890, MCF7/TGL cells treated with CO, replicates CO 1-3
  Peak Height Acetylcysteine: 309,165 and 445,217 and 662,532
HMDB02005, MCF7/TGL cells treated with CO, replicates CO 1-3
  Peak Height Methionine sulfoxide: 1,119,307 and 1,490,306 and 2,521,401
HMDB02320, MCF7/TGL cells treated with CO, replicates CO 1-3
  Peak Height Imidazolelactic acid: 128,890 and 215,532 and 355,864
HMDB02820, MCF7/TGL cells treated with CO, replicates CO 1-3
  Peak Height Methylimidazoleacetic acid: 2,032,579 and 2,307,084 and 4,227,106
HMDB02994, MCF7/TGL cells treated with CO, replicates CO 1-3
  Peak Height Erythritol: 124,085 and 149,580 and 273,411
HMDB03337, MCF7/TGL cells treated with CO, replicates CO 1-3
  Peak Height Oxidized glutathione: 1,351,310 and 1,735,245 and 4,066,758
HMDB03349, MCF7/TGL cells treated with CO, replicates CO 1-3
  Peak Height L-Dihydroorotic acid: 52,713 and 82,695 and 121,047
HMDB03351, MCF7/TGL cells treated with CO, replicates CO 1-3
  Peak Height GDP-glucose: 30,304 and 39,328 and 68,617
HMDB03357, MCF7/TGL cells treated with CO, replicates CO 1-3
  Peak Height N-Acetylornithine: 364,451 and 403,207 and 622,448
HMDB03681, MCF7/TGL cells treated with CO, replicates CO 1-3
  Peak Height 4-Acetamidobutanoic acid: 550,530 and 718,720 and 878,912
HMDB06028, MCF7/TGL cells treated with CO, replicates CO 1-3
  Peak Height N-Acetylasparagine: 279,146 and 204,547 and 192,934
HMDB06029, MCF7/TGL cells treated with CO, replicates CO 1-3
  Peak Height N-Acetylglutamine: 233,588 and 221,551 and 457,769
HMDB06557, MCF7/TGL cells treated with CO, replicates CO 1-3
  Peak Height ADP-glucose: 51,484 and 47,964 and 81,136
HMDB11718, MCF7/TGL cells treated with CO, replicates CO 1-3
  Peak Height 4-Hydroxybenzaldehyde: 1,638,500 and 1,711,975 and 2,780,422
HMDB11745, MCF7/TGL cells treated with CO, replicates CO 1-3
  Peak Height N-Acetyl-L-methionine: 1,517,454 and 1,648,819 and 2,302,821
HMDB31818, MCF7/TGL cells treated with CO, replicates CO 1-3
  Peak Height D-2,3-Dihydroxypropanoic acid: 2,390,333 and 3,141,171 and 4,932,187
HMDB61658, MCF7/TGL cells treated with CO, replicates CO 1-3
  Peak Height 3-hydroxyhexadecanoic acid: 11,142 and 13,344 and 11,314
[1]
  citric acid and phosphoenolpyruvic acid: did not provide statistically significant results
  nine common metabolites (fumaric acid, L-Dihydroorotic acid, D-2-Hydroxyglutaric, malic acid, NAD, GDP-glucose, pyruvic acid, inosinic acid, oxoglutaric acid): significantly downregulated
  pyruvic acid, oxoglutaric acid, malic acid, and fumaric acid (TCA intermediates): significantly downregulated
  succinic acid: significantly downregulated
MCF7/TGL/pQ cells, 250 ppm carbon monoxide for 16 hours
  abundance of metabolites tested (metabolomics profiling): reduced the abundance of the majority of metabolites tested
